# Target: AtOPR3 (Arabidopsis thaliana, UniProt Q9FUP0)
# Test: X-ray crystal structure, […] Å
# Format: binding
# Details: ternary complex with 8-iso PGA1; one FMN per monomer
# AtOPR3, sequence (Q9FUP0 whole entry): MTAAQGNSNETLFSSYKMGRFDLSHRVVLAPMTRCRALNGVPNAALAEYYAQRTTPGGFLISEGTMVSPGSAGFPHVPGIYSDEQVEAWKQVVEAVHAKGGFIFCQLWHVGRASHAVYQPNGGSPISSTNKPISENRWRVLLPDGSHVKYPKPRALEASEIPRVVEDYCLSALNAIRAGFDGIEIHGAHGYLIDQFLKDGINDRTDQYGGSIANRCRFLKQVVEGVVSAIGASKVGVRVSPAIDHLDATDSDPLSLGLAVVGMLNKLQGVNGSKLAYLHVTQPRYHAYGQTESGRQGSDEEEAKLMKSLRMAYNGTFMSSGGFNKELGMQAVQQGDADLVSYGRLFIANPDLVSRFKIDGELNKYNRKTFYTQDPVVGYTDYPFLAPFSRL
structure (smiles),measurement,value
Cc1cc2nc3c(=O)[nH]c(=O)nc-3n(C[C@H](O)[C@H](O)[C@H](O)COP(=O)(O)O)c2cc1C [FMN],"X-ray crystal structure, 2.6 Å",each AtOPR3 monomer contains one FMN and one 8-iso PGA1 molecule
